Tested on: Male spontaneously hypertensive rats (SHR), arterial blood pressure
Test: Depressor response after intravenous administration (30 μg/kg), Table 1
Assay type: in vivo, rat
Settings: for Duration: '90<' means greater than 90
Protocol: Male spontaneously hypertensive rats (SHR) which had mean arterial blood pressures higher than 140 mmHg were used for the experiments. Arterial blood pressure was measured through the catherized artery with a pressure transducer (MPU-0.5, manufactured by Nihon Kohden Kabushiki Kaisha). The catheter was inserted into the abdominal aorta via the median coccygcal artery of SHR under light ether anesthesia. The recordings were made on a rectigraph (manufactured by Sanei Sokki Kabushiki Kaisha). The 1,4-dihydropyridine derivatives prepared in the foregoing examples were administered with catheter which was inserted previously into the caudal vein or duodenum at least two hours after the operation. SHR were restrained with wire mesh cage immediately after the operation. Each derivative to be tested was dissolved in 1.5% PVP/ethanol, and then diluted with 0.9% saline or intravenous administration (30 μg/kg), or suspended in 5% gum arabic solution of intraduodenal administration (1 mg/kg).

Row | Compound | The time to reach the lowest BP | ΔBP (Maximum depressor response) | Duration
1 | COC(=O)C1=C(C)NC(C)=C(C(=O)OCC=Cc2ccccc2)C1c1cccs1 (centres unmarked) [Example 65, Cinnamyl methyl 4-(2-thienyl)-2,6-dimethyl-1,4-dihydropyridine-3,5-dicarboxylate] | 0.3 min | 18 mmHg | 
2 | CC=CC=CCOC(=O)C1=C(C)NC(C)=C(C(=O)OCC(C)C)C1c1cccc([N+](=O)[O-])c1 (centres unmarked) [Example 76, Isobutyl 2,4-hexadienyl 4-(3-nitrophenyl)-2,6-dimethyl-1,4-dihydropyridine-3,5-dicarboxylate] | 6 min | 32 mmHg | 
3 | C=C(C)COC(=O)C1=C(C)NC(C)=C(C(=O)OCC=CC=CC)C1c1cccc([N+](=O)[O-])c1 (centres unmarked) [Example 77, 2-methyl-2-propen-1-yl 2,4-hexadienyl 4-(3-nitrophenyl)-2,6-dimethyl-1,4-dihydropyridine-3,5-dicarboxylate] | 2 min | 60 mmHg | 
4 | CC=CC=CCOC(=O)C1=C(C)NC(C)=C(C(=O)OC2CCCCC2)C1c1cccc([N+](=O)[O-])c1 (centres unmarked) [Example 70, Cyclohexyl 2,4-hexadienyl 4-(3-nitrophenyl)-2,6-dimethyl-1,4-dihydropyridine-3,5-dicarboxylate] | 7.0 min | 65 mmHg | > 90 min
5 | CC1=C(C(=O)OCC=Cc2ccccc2)C(c2cccc([N+](=O)[O-])c2)C(C(=O)OC(C)C=Cc2ccccc2)=C(C)N1 (centres unmarked) [Example 47, Cinnamyl 1-methyl-3-phenyl-2-propenyl 4-(3-nitrophenyl)-2,6-dimethyl-1,4-dihydropyridine-3,5-dicarboxylate] | 48 min | 67 mmHg | > 120 min
6 | CC=CC=CCOC(=O)C1=C(C)NC(C)=C(C(=O)OCCCC)C1c1cccc([N+](=O)[O-])c1 (centres unmarked) [Example 83, n-butyl 2,4-hexadienyl 4-(3-nitrophenyl)-2,6-dimethyl-1,4-dihydropyridine-3,5-dicarboxylate] | 2.6 min | 45 mmHg | 
7 | CC=CC=CCOC(=O)C1=C(C)NC(C)=C(C(=O)OCC=Cc2ccccc2)C1c1cccc([N+](=O)[O-])c1 (centres unmarked) [Example 71, Cinnamyl 2,4-hexadienyl 4-(3-nitrophenyl)-2,6dimethyl-1,4-dihydropyridine-3,5-dicarboxylate] | 10 min | 42 mmHg | > 90 min
8 | CC=CC=CCOC(=O)C1=C(C)NC(C)=C(C(=O)OCC=CC=CC)C1c1cccc([N+](=O)[O-])c1 (centres unmarked) [Example 73, bis(2,4-hexadienyl) 4-(3-nitrophenyl)-2,6-dimethyl-1,4-dihydropyridine-3,5-dicarboxylate] | 6.0 min | 55 mmHg | > 120 min
9 | CC=CC=CCOC(=O)C1=C(C)NC(C)=C(C(=O)OCC2CC2)C1c1cccc([N+](=O)[O-])c1 (centres unmarked) [Example 85, Cyclopropylmethyl 2,4-hexadienyl 4-(3-nitrophenyl)-2,6-dimethyl-1,4-dihydropyridine-3,5-dicarboxylate] | 2.6 min | 35 mmHg | 
10 | C=CCCOC(=O)C1=C(C)NC(C)=C(C(=O)OCC=CC=CC)C1c1cccc([N+](=O)[O-])c1 (centres unmarked) [Example 79, 3-butenyl 2,4-hexadienyl 4-(3-nitrophenyl)-2,6-dimethyl-1,4-dihydropyridine-3,5-dicarboxylate] | 2.7 min | 55 mmHg | 
11 | CCC(C=Cc1ccccc1)OC(=O)C1=C(C)NC(C)=C(C(=O)OC)C1c1cccc([N+](=O)[O-])c1 (centres unmarked) [Example 25, 1-ethyl-3-phenyl-2-propenyl methyl 4-(3-nitrophenyl)-2,6-dimethyl-1,4-dihydropyridine-3,5-dicarboxylate] | 10 min | 71 mmHg | > 240 min
12 | COC(=O)C1=C(C)NC(C)=C(C(=O)OCC=C(c2ccccc2)c2ccccc2)C1c1cccc([N+](=O)[O-])c1 (centres unmarked) [Example 9, 3,3-diphenyl-2-propenyl methyl 4-(3-nitrophenyl)-2,6-dimethyl-1,4-dihydropyridine-3,5-dicarboxylate] | 13 min | 12 mmHg | > 240 min
13 | CC1=C(C(=O)OCC=Cc2ccccc2)C(c2cccc([N+](=O)[O-])c2)C(C(=O)OCCSc2ccccc2)=C(C)N1 (centres unmarked) [Example 42, Cinnamyl 2-phenylthioethyl 4-(3-nitrophenyl)-2,6-dimethyl-1,4-dihydropyridine-3,5-dicarboxylate] | 10 min | 35 mmHg | > 90 min
14 | COC(=O)C1=C(C)NC(C)=C(C(=O)OCC=CC=Cc2cccs2)C1c1cccc([N+](=O)[O-])c1 (centres unmarked) [Example 51, Methyl 5-(2-thienyl)-2,4-pentadienyl 4-(3-nitrophenyl)-2,6-dimethyl-1,4-dihydropyridine-3,5-dicarboxylate] | 2.0 min | 40 mmHg | > 90 min
15 | CC=CC=CCOC(=O)C1=C(C)NC(C)=C(C(=O)OCCOC)C1c1cccc([N+](=O)[O-])c1 (centres unmarked) [Example 69, 2-methoxyethyl 2,4-hexadienyl 4-(3-nitrophenyl)-2,6-dimethyl-1,4-dihydropyridine-3,5-dicarboxylate] | 1.0 min | 60 mmHg | > 90 min
16 | CCOC(=O)C1=C(C)NC(C)=C(C(=O)OCC=CC=Cc2ccccc2)C1c1cccc([N+](=O)[O-])c1 (centres unmarked) [Example 60, ethyl 5-phenyl-2,4-pentadienyl 4-(3-nitrophenyl)-2,6-dimethyl-1,4-dihydropyridine-3,5-dicarboxylate] | 4.0 min | 60 mmHg | > 90 min
17 | COC(=O)C1=C(C)NC(C)=C(C(=O)OCC=CC=Cc2ccco2)C1c1cccc([N+](=O)[O-])c1 (centres unmarked) [Example 52, Methyl 5-(2-furyl)-2,4-pentadienyl 4-(3-nitrophenyl)-2,6-dimethyl-1,4-dihydropyridine-3,5-dicarboxylate] | 2.0 min | 55 mmHg | > 90 min
18 | COC(=O)C1=C(C)NC(C)=C(C(=O)OCCC=Cc2ccc([N+](=O)[O-])cc2)C1c1cccc([N+](=O)[O-])c1 (centres unmarked) [Example 21, 4(p-nitrophenyl)-3-butenyl methyl 4-(3-nitrophenyl)-2,6-dimethyl-1,4-dihydropyridine-3,5-dicarboxylate] | 1.0 min | 70 mmHg | > 120 min
19 | COC(=O)C1=C(C)NC(C)=C(C(=O)OC/C=C\C=C\c2ccccc2)C1c1cccc([N+](=O)[O-])c1 (centres unmarked) [Example 59, Methyl (2Z,4E)-5-phenyl-2,4-pentadienyl 4-(3-nitrophenyl)-2,6-dimethyl-1,4-dihydropyridine-3,5-dicarboxylate] | 1.8 min | 56.7 mmHg | 

From patent publication US4672068A, “Antihypertensive 1,4-dihydropyridines having a conjugated ester” (Fujirebio Kabushiki Kaisha, priority 1984, dated 1987)
